# Results as given in patent publication US20240075004A1, “VERY-LONG-CHAIN POLYUNSATURATED FATTY ACIDS, ELOVANOID HYDROXYLATED DERIVATIVES, AND METHODS OF USE” (The Board of Supervisors of Louisiana State University and …, priority 2020, published 2024).
# Experiments:
# [1] = tested on: HNEpC; test: HNEpC challenged with HDM: SPiDER β-galactosidase staining; type: cell-based, human; conditions: 500 nM; HDM 30 μg/ml
# Procedure: ELVN-34 protects HNEpC from the senescence-associated secretory phenotype (SASP response). Representative images of HNEpC stained with Hoechst 33342 and spider β-galactosidase—(Panel A) untreated (Control), (Panel B) challenged with HDM (30 μg/ml), and (Panel C) HNEpC treated with HDM and ELVN-34:6 Na (500 nM). (Panel D) Quantitative assessment of increased SASP response (measured by the spider β-galactosidase staining) upon HDM exposure (30 μg/ml). ELVN-34:6 Na (500 nM) treatment reduces the number of beta-gal positive HNEpC induced by HDM. […] (*p<0.05).
# Cryopreserved human nasal epithelial cells HNEpC were purchased from PromoCell GmbH, Heidelberg, Germany. (Catalog #C-1260, Lot #436Z028).
# The cells used for our experiments are primary nasal epithelial cells obtained from the nasal mucosa of a person.
# Cells were received in passage (P1) and were sub-culture to passage (P3), which were used for all the experiments.
# HNEpC were grown to 80% confluency in Promocell's Airway epithelial cell growth medium (Catalog #C-21060) which was supplemented with airway epithelial cell growth medium supplement pack (Catalog #C-39160) and Penicillin/Streptomycin.
# [2] = tested on: human RPE cells; test: Oxidative-stress and Erastin induced cell death in human RPE cells; type: cell-based
# [3] = tested on: pro-inflammatory transcriptome and pro-homeostatic pathways in RPE single-cells; test: UOS transcriptome in RPE single-cells; type: cell-based; conditions: 96 per sample
# Description: Dots in box plots represent expression of the gene for a single RPEC (total of 96 per sample). P<0.001 (***), P<0.01 (**), One-way Anova, with Post-Hoc Tukey HSD test for multiple comparisons.
# [4] = tested on: RPE and PRC; test: Subretinal injection of OAβ in WT mice: fundus/OCT and ZO-1 whole flat mount of RPE; type: in vivo, C57BL/6J WT mice; conditions: OAβ-injected retina, 10 μM subretinal, 7 days; non-injected retina 105 μm
# Procedure: All animal experiments were performed according to ARVO Statement for the Use of Animals in Ophthalmic and Vision Research, and the protocol was approved by LSU Health New Orleans' Institutional Animal Care and Use Committee (IACUC). 6-month-old 5×FAD mice (stock number: 34848-JAX, The Jackson Laboratory, Bar Harbor, ME, USA), co-overexpress FAD mutant forms of human amyloid precursor protein (the Swedish mutation: K670N, M671L; the Florida mutation: I716V; and the London mutation: V7171) and presenilin 1 (PS1, encoded by Psen1: M146L, L286V) transgenes under transcriptional control of the neuron-specific mouse Thy1 promoter. 5×FAD mice were hemizygotes with respect to the transgenes and non-transgenic WT littermates. Genotyping was performed by PCR of tail DNA. All analyses were carried out blind with respect to the mice genotype. For the subretinal injection, 6-month-old C57BL/6J mice were anesthetized by an intraperitoneal injection of ketamine/xylazine, pupils dilated with 1.0% tropicamide (Akorn, IL, USA); and 0.5% Proparacaine Hydrochloride (Akorn) was applied for topical anesthesia. Eyes were punctured with a 30-gauge needle between the corneoscleral junction and the ora serrata into the vitreous cavity without disturbing the lens. Compounds were delivered to the subretinal region using a 33-gauge blunt needle attached to a 5 μl Hamilton syringe (Hamilton Company, Reno, NV, USA) under a dissecting microscope. Non-injected mice were used as negative control while the PBS injected mice were used for sham. The injection volume was 2 μl containing PBS, 10 μM of OAβ, 10 μM of OAβ+200 ng ELV-N-32, 200 ng ELV-N-32 alone, 10 μM of OAβ+200 ng ELV-N-34 or 200 ng ELV-N-34 alone (n=12/group). All groups received topical drops: PBS only or ELV-N-32 (200 nM) or ELV-N-34 (200 nM), twice a day for 3 or 7 days.
# For the whole mount RPE staining, eyeballs were enucleated and pre-fixed in 4% PFA for 15 min. Then the eye cup containing RPE sheet were fixed in 4% PFA for 30 min, washed in PBS 3× following the blocking step for 1 h at room temperature. The immunostaining was performed by incubating primary antibody (ZO-1) for 48 h at 4° C. Then the eye cups were washed 3× with PBS and incubated with the secondary antibody for 12 h at 4° C. The primary human RPE cells as well as mouse eye cups were embedded in ProLong™ Gold Antifade Mounting medium (Thermo Fisher Scientific) between two glass coverslips. Pictures were taken with Olympus FV1200 microscope (Olympus, Japan). Images were analyzed by software ImageJ (rsb.info.nih.gov/ij/).
# 7 days post-injection, mice were anesthetized with ip ketamine/xylazine, pupil dilated by topical 1.0% tropicamide and placed in a custom-built holder for OCT imaging (body temperature maintained at 38° C. with a heat pad). Retinas were imaged along the horizontal meridian through the optic nerve head using a Heidelberg Spectralis HRA OCT system (Heidelberg Engineering, Heidelberg, Germany). Axial resolution is […]. The raw OCT B-scans cross-sectional images were exported with the scale in m and opened in ImageJ (http//imagej.nih.gov/ij). The PRC layer thickness was defined as the width from the tip of the outer nuclear layer, right after the outer plexiform layer, to the outer segments of PRC. Three measurements were made on the same scan and averaged. Mean and standard error of the mean (SEM) were calculated (n=4/group). Students' T-test was used to calculate statistical significance and a P-value less than 0.05 was considered significant.
compound,measurement,setting,value
"CC/C=C\C[C@H](O)\C=C/C=C/C=C/[C@H](O)C/C=C\C/C=C\CCCCCCCCCCCCCCC(=O)[O-].[Na+] [ELVN-34:6 Na, sodium (16Z,19Z,22R,23E,25E,27Z,29S,31Z)-22,29-dihydroxytetratriaconta-16,19,23,25,27,31-hexaenoate]","number of beta-gal positive HNEpC (SASP response, spider β-galactosidase staining)",[1],reduces
"CC/C=C\C[C@H](O)\C=C/C=C/C=C/[C@H](O)C/C=C\C/C=C\CCC(=O)O [NPD1, 10R,17S-dihydroxy-docosa-4Z,7Z,11E,13E,15Z,19Z-hexaenoic acid, reference compound]",oxidative-stress and Erastin induced cell deaths,[2],counteracted
same,UOS up-regulation of pro-inflammatory transcriptome and down-regulation of pro-homeostatic pathways,[3],suppress these changes
OAβ: Aβ (1-42) oligomerized for 24 h at 4° C.; cytotoxic challenge injected subretinally or added to cells [reference compound],PRC layer thickness (OCT),[4],35 μm
